According to patent US20260248820A1, “USES OF HYDROGENATED CANNABIDIOL (H4CBD) AND ADVANCED METABOLIC SYNDROME” (The Regents of the University of California, priority 2022, published 2026):
“Also recorded” adds a separate entry of the source.

Tests used:
[1] = system: Otsuka Long-Evans Tokushima Fatty (OLETF) rat; assay: End of study fasting blood/plasma measurements (glucose, hormones, lipids, RAAS peptides); assay type: in vivo; design: Plasma AngII higher than OLETF control / Plasma Ang 1-7 higher than OLETF control / Plasma aldosterone higher than OLETF control / Reduction of fasting insulin to glucagon ratio compared to OLETF / Reduction of circulating adiponectin compared to OLETF / Reduction of leptin compared to OLETF: concentration or dose not given beside the values
Excerpt: Tissue Collection—After the 4-week study and 3 days following the OGTT, animals were fasted overnight and tissues were collected the following morning.
Statistics—All values are represented as mean #standard error mean (SEM) unless otherwise indicated. Means were compared by one-way ANOVA followed by Tukey's honest significant difference or unpaired, one-tailed t-test to assess significant differences among groups. Means and regressions were considered significant at p<0.05. Outliers were detected by ROUT (Q=1.0%) and removed; however, it should be noted that this was necessary for only 12 occurrences. All statistical procedures, including Pearson r correlations, were performed using GraphPad Prism 9.3.1 (GraphPad Software, Inc., San Diego, CA, USA).
Tissue Collection—After the 4-week study period, animals were fasted overnight, and tissues were collected at sacrifice the following morning. BM was recorded before animals were decapitated and trunk blood was collected.
Plasma Analysis—Plasma concentrations of adiponectin (Millipore Sigma; EZRADP-62K), aldosterone (R&D Systems; KGE016), angiotensin 1-7 (Phoenix Pharmaceuticals; EKE-002-01), angiotensin II (Phoenix Pharmaceuticals; EK-002-12CE), corticosterone (R&D Systems; KGE009), ghrelin (Sigma Aldrich; RAB0207), glucagon (Crystal Chemicals; 81519), leptin (Millipore Sigma; EZRL-83K), non-esterified fatty acid (NEFA) (Wako Chemicals) and triglycerides (Cayman Chemical; 10010303) were measured in fasted, end of study plasma samples. All samples were analyzed in duplicate and run in a single assay with intra-assay and percent CV of <10% for all assays.

[2] = Drug bioavailability detection in heparinized plasma (HPLC, MS/MS); assay type: in vivo, rat; conditions: peak area count <1500 considered negative, 200 mg/kg oral gavage
Experimental: Drug Bioavailability Detection—H4CBD bioavailability in heparinized plasma was determined via HPLC and MS/MS. In brief, 100 μL heparinized rat plasma was diluted with 100 μL Mass Spec Gold human serum (Golden West Diagnostics, MSG3200). The samples were analyzed using a WATERS TQS-Micro. The first quadrupole was set to 319.16 m/z and the third quadrupole isolated fragments of 181.02 m/z.
Drug Bioavailability Detection—H4CBD bioavailability in heparinized plasma was determined via HPLC and MS chromatography.

lipase activity = assay: Lipase activity assay (adipose, liver, plasma); assay type: in vivo, rat
Experimental: Lipase Activity Assay—White adipose tissue (WAT) and liver was assayed for lipase activity.

Collagen Type IV = assay: Liver Type IV collagen deposition (liver damage); assay type: in vivo, rat; conditions: collagen 71% higher in OLETF than LETO
Excerpt: Type IV collagen deposition is an indicator of liver fibrosis, which is useful in the diagnosis of NAFLD in elderly individuals and models of NAFLD like OLETF.

[3] = system: Otsuka Long-Evans Tokushima Fatty (OLETF) rat; assay: Systolic blood pressure by DSI radiotelemetry; assay type: in vivo; conditions: for Average increase of systolic blood pressure versus non-treated OLETF: after the 7th day of the dose regimen
Experimental: Telemeter Implantation—At 16 weeks, OLETF rats (n=5) were implanted with DSI telemeters (HD-S10) in the abdominal cavity to measure systolic blood pressure. […] Activity was measured every hour for 15 minutes for the duration of the study. Data were analyzed using A.R.T. software (DSI, St. Paul, MN).

AT1 mRNA = assay: Real-time qPCR on cardiac tissue, AT1; assay type: in vivo, rat
Excerpt: (§1) Real-Time qPCR—Gene expression was quantified by qPCR on cardiac tissue. Primers used were acquired from Integrated DNA Technologies and listed here 5′-3′: angiotensin MAS1 receptor (Mas1) Fw: […] (SEQ ID NO:1), Rv: […] (SEQ ID NO:2).

Mas1 mRNA = assay: Real-time qPCR on cardiac tissue, Mas1; assay type: in vivo, rat; conditions: 74% lower in OLETF control than LETO
Excerpt: as §1

[4] = system: endocannabinoid receptors; conditions: cited from earlier work
[5] = H4CBD-treated OLETF rats, end of study fasting, mean ± SEM
[6] = H4CBD-treated OLETF rats, end of study, mean ± SEM

Question: For `CCCCCc1cc(O)c(C2CC(C)CCC2C(C)C)c(O)c1` (centres unmarked) [H4CBD, 2-(2-isopropyl-5-methylcyclohexyl)-5-pentylbenzene-1,3-diol], which “Fasting blood glucose higher than LETO” value ([1]; 45 weeks of age, p<0.0001) is on record?
Answer: 2.2 fold

Question: What about the “Fasting blood glucose higher than OLETF” value ([1]; 45 weeks of age, p<0.01) of the same molecule?
Answer: 56%

Question: What about the “Glucose:Insulin (mmol/μIU × 10^4)” value [1, 5] of the same molecule?
Answer: 10.9 ± 1.1^ mmol/μIU × 10^4

Question: What about the “Insulin:Glucagon (μIU/pg)” value [1, 5] of the same molecule?
Answer: 0.6 ± 0.0^ μIU/pg

Question: And the “Fasting glucagon” value [1, 6]?
Answer: 19.4 ± 9.4 pg/mL

Question: What about the “Fasting insulin (μIU/mL)” value [1, 6] of the same molecule?
Answer: 13.9 ± 0.4^# μIU/mL

Question: And the “Fasting blood glucose (mmol/L)” value ([1]; H4CBD-treated OLETF rats, end of study, mean ± SEM, n = 8)?
Answer: 15.8 ± 1.9^†£ mmol/L

Question: And the “Fasted plasma NEFA” value ([1]; LETO, OLETF, H4CBD)?
Answer: not different among groups

Question: What about the “Increase of fasting plasma insulin over OLETF” value ([1]; end of study) of the same molecule?
Answer: 10%

Question: And the “Plasma glucagon, OLETF versus H4CBD” value ([1]; end of study fasting)?
Answer: not different

Question: What about the “Plasma Ang 1-7 higher than OLETF control” value ([1]; end of study plasma) of the same molecule?
Answer: 26%

Question: What about the “Plasma AngII higher than OLETF control” value ([1]; end of study plasma) of the same molecule?
Answer: 24%

Question: What about the “Plasma aldosterone higher than OLETF control” value ([1]; end of study plasma, p=0.052) of the same molecule?
Answer: 150%

Question: And the Plasma corticosterone ([1]; fasting plasma, LETO, OLETF, H4CBD)?
Answer: comparable amongst the groups

Question: And the “Plasma ghrelin greater than the other groups” value ([1]; fasting plasma, p<0.01 vs OLETF, p<0.05 vs LETO)?
Answer: 75%

Question: What about the “Reduction of circulating adiponectin compared to OLETF” value ([1]; fasting plasma, p<0.05) of the same molecule?
Answer: 40%

Question: What about the “Reduction of leptin compared to OLETF” value ([1]; fasting plasma, p<0.05) of the same molecule?
Answer: 47%

Question: What about the “Leptin:adiponectin ratio” value ([1]; fasting plasma, ratio 30% lower in OLETF than LETO) of the same molecule?
Answer: did not modulate the ratio further

Question: And the “Fasted plasma TG” value ([1]; p<0.0001 OLETF vs. H4CBD, TG 147% higher in OLETF than LETO)?
Answer: reduced fasted plasma TG to LETO control levels

Question: And the “Increase of fasting glucose to insulin ratio compared to OLETF” value ([1]; p<0.05)?
Answer: 47%

Question: And the “Reduction of fasting insulin to glucagon ratio compared to OLETF” value ([1]; p<0.05)?
Answer: 64%

Question: What about the “H4CBD in end of study plasma” value [2] of the same molecule?
Answer: only treated animals received drug; also recorded: only detected in plasma from treated rats

Question: And the “Liver lipase activity (cytosolic, membrane)” value (lipase activity; LETO, OLETF, H4CBD)?
Answer: not different among groups

Question: What about the “Fasted plasma lipase activity” value (lipase activity; data not shown) of the same molecule?
Answer: not significantly different among groups

Question: What about the “Increase of adipose lipase activity compared to OLETF control” value (lipase activity; white adipose tissue, tended, p=0.094) of the same molecule?
Answer: 22%

Question: And the “Liver collagen (Type IV) deposition” value (Collagen Type IV)?
Answer: no effect on collagen levels

Question: What about the “Systolic blood pressure, treated vs non-treated OLETF” value ([3]; 4 weeks telemetry) of the same molecule?
Answer: No significant difference; also recorded: did not reduce SBP

Question: And the “Average increase of systolic blood pressure versus non-treated OLETF” value [3]?
Answer: 4%

Question: And the “Average increase of systolic blood pressure versus non-treated OLETF” value ([3]; H4CBD n=3, OLETF n=2)?
Answer: 6.5 mmHg

Question: And the “AT1 mRNA expression higher than control OLETF” value (AT1 mRNA)?
Answer: 49%

Question: What about the “Mas1 mRNA expression” value (Mas1 mRNA) of the same molecule?
Answer: not rescued

Question: And the “Affinity for the endocannabinoid receptors responsible for cannabis intoxication” value [4]?
Answer: little affinity
